Some results are limits rather than exact numbers.

The source of these data is patent US20140356414A1, “Targeted Crosslinked Multilamellar Liposomes” (University of Southern California, priority 2013, published 2014).

In one data set the test system is B16 cells. As to the kind of experiment: In vitro cytotoxicity, XTT assay, B16 cells. It is filed as cell-based. The note with it: 48 h. The procedure:
B16 or HeLa cells were plated at a density of 5×10^3 cells per well in D10 media in 96-well plates and grown for 6 h. The cells were then exposed to a series of concentrations of Dox-loaded CMLs, ULs or DLLs for 48 h, and the cytotoxicity of Dox-liposomes was assessed using the Cell Proliferation Kit II (XTT assay) from Roche Applied Science, according to the manufacturer's instructions.

For another data set, the system named is cardiac tissue. The note with it: 20 mg/kg Dox equivalent, single i.v. The source says:
FIGS. 9A-B. In vivo toxicity and tolerability. […] (A) Average mouse weight loss over time. […] Error bars represent the standard deviation of the mean; n=2 for each treatment group (*p<0.05, ***p<0.005).

Data set [1] in a line: Maximum tolerated dose study. The note with it: for body weight: 8 days.
Text: The mice were weighed and monitored daily for 8 days after injection.

Regarding `COc1cccc2c1C(=O)c1c(O)c3c(c(O)c1C2=O)C[C@@](O)(C(=O)CO)C[C@@H]3O[C@H]1C[C@H](N)[C@H](O)[C@H](C)O1` [free Dox, doxorubicin], the “half-maximal response (EC50)” value with B16 cells is on record as “similar”. Also, the “histopathologic changes in cardiac tissue” value in the data set with cardiac tissue is “severe damage of cardiac tissue”. The body weight entry in data set [1] (20 mg/kg Dox equivalent) and in data set [1] (40 mg/kg Dox equivalent) was “significant loss of body weight” throughout. For the same compound, the “general health / signs of toxicity” value in data set [1] (40 mg/kg free Dox, CML-Dox groups) is recorded as “obvious signs of toxicity”. This compound registered a maximum tolerated dose in data set [1] (single intravenous administration, C57BL/6 mice) below 20 mg/kg.
